From patent publication US20260297042A1, “BIARYLAMIDE DERIVATIVES AND THEIR USE AS PKMYT1 INHIBITORS” (CANCER RESEARCH TECHNOLOGY LIMITED, priority 2023, published 2026)

Columns and labels:
WEE1 = molecular target: T1, WEE1 (Homo sapiens, UniProt P30291); test: Selectivity versus WEE1 assay (ADP-Glo enzymatic assay); format: biochemical; conditions: for IC50: ADP-Glo; for PKMYT1 vs. WEE1 selectivity: fold difference in selectivity for PKMYT1 over WEE1
T1 construct: purchased Thermo Fisher PR7373A
T1 sequence (P30291 whole entry): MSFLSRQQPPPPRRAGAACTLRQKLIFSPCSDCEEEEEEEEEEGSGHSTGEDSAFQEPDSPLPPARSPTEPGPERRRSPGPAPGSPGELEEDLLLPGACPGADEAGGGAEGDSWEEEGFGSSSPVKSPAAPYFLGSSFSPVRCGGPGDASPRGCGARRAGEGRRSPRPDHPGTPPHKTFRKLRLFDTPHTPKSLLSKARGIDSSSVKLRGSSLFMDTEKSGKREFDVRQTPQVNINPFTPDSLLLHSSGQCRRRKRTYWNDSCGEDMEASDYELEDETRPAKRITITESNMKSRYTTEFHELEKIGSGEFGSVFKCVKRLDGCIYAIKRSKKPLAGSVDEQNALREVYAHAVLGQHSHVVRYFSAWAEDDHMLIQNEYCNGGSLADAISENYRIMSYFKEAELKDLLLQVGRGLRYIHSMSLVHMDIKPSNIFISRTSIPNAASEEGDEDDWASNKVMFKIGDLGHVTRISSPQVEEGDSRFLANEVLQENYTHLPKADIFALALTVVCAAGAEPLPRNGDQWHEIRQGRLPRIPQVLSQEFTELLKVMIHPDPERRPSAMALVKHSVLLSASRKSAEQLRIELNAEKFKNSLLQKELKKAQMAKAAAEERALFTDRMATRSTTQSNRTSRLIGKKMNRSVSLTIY
Method in brief: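 Inhibition is measured as reduced ADP production, detected by luminescence with ADP-Glo, after enzyme (15 nM) and 30 µM ATP react for 60 min at 26° C in 1% DMSO-containing HEPES buffer, pH 7.5. Data are accepted only if replicate IC50s fall within 3-fold and r2 exceeds 0.9.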

Human PKMYT1 = molecular target: T2, Human PKMYT1 (Homo sapiens, UniProt Q99640); test: PKMYT1 biochemical ADP-Glo enzymatic assay; conditions: ADP-Glo
T2 construct: Human PKMYT1 75-362 was cloned as a TEV cleavable 6xHis fusion; 6xHis (TEV cleavable) (cleaved yes); made in house; host or cells: bacterial cells
T2 sequence (Q99640 75-362): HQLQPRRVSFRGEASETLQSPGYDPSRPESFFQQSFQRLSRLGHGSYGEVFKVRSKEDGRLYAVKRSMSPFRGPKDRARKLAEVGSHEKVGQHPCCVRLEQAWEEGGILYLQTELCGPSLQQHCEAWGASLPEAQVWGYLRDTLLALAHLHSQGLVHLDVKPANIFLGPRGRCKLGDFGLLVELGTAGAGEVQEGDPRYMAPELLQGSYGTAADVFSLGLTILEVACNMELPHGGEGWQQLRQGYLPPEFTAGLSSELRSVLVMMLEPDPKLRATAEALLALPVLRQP
Method in brief: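 IC50 derived from luminescence (ADP-Glo Max) after PKMYT1 kinase domain, 15 nM, turned over 500 µM ATP for 60 min at 26 °C. Buffer contained 10 mM MgCl2, 1 mM EGTA and 0.01% Brij-35 at pH 7.5.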

[1] = 15 nM WEE1, 60 minutes at 26° C., banded
[2] = banded, ">N" = at least in this band but could be higher
[3] = 15 nM PKMYT1 kinase domain, 500 µM ATP, 60 minutes at 26° C., banded
[4] = PKMYT1 kinase domain 15 nM, banded values

Structure (SMILES) | IC50 (WEE1; [1]) | PKMYT1 vs. WEE1 selectivity (WEE1; [2]) | IC50 (Human PKMYT1; [3]) | IC50 (WEE1; WEE1 15 nM, banded values) | PKMYT1 vs. WEE1 selectivity (WEE1; banded) | IC50 (Human PKMYT1; [4])
Cc1ccc(O)c(C)c1NC(=O)c1cnc(Nc2cc(C)n(CCC(N)=O)n2)s1 [BAA-239, 2-((1-(3-amino-3-oxopropyl)-5-methyl-1H-pyrazol-3-yl)amino)-N-(3-hydroxy-2,6-dimethylphenyl)thiazole-5-carboxamide] | 1 to 11 µM | W (10-<100 fold) | 0.05 to 1 µM |  |  | 
Cc1ccc(O)c(C)c1NC(=O)c1cnc(Nc2ccn(C3CCNCC3)n2)s1 [BAA-055] | > 11 µM | >X (100-<1000 fold) | 0.05 to 1 µM |  |  | 
Cn1cc(Br)c(Nc2ncc(C(=O)Nc3c(F)ccc(O)c3Cl)s2)n1 [BAA-472, 2-((4-Bromo-1-methyl-1H-pyrazol-3-yl)amino)-N-(2-chloro-6-fluoro-3-hydroxyphenyl)thiazole-5-carboxamide] |  |  |  | > 11 µM | X (100-<1000 fold) | < 0.05 µM
Cc1ccc(O)c(C)c1NC(=O)c1cnc(Nc2cn(C)nc2C(F)(F)F)s1 [BAA-548, N-(3-hydroxy-2,6-dimethylphenyl)-2-((1-methyl-3-(trifluoromethyl)-1H-pyrazol-4-yl)amino)thiazole-5-carboxamide] |  |  |  | > 11 µM | X (100-<1000 fold) | 0.05 to 1 µM
Cc1csc(Nc2ncc(C(=O)Nc3c(C)ccc(O)c3C)s2)n1 [BAA-264, N-(3-hydroxy-2,6-dimethylphenyl)-2-((4-methylthiazol-2-yl)amino)thiazole-5-carboxamide] | > 11 µM | X (100-<1000 fold) | < 0.05 µM |  |  | 
Cc1nnc(Nc2ncc(C(=O)Nc3c(C)ccc(O)c3C)s2)s1 [BAA-263, N-(3-hydroxy-2,6-dimethylphenyl)-2-((5-methyl-1,3,4-thiadiazol-2-yl)amino)thiazole-5-carboxamide] | > 11 µM | X (100-<1000 fold) | 0.05 to 1 µM |  |  | 
COc1ccc(CC(=O)N2CC[C@@H](n3ccc(Nc4ncc(C(=O)Nc5c(C)ccc(O)c5C)s4)n3)C2)cc1 [BAA-089] | > 11 µM | >X (100-<1000 fold) | 0.05 to 1 µM |  |  | 
Cc1cn(Cc2ncco2)nc1Nc1ncc(C(=O)Nc2c(C)ccc(O)c2C)s1 [BAA-366, N-(3-hydroxy-2,6-dimethylphenyl)-2-((4-methyl-1-(oxazol-2-ylmethyl)-1H-pyrazol-3-yl)amino) thiazole-5-carboxamide] | 1 to 11 µM | X (100-<1000 fold) | < 0.05 µM |  |  | 
Cc1ccc(O)c(C)c1NC(=O)c1cnc(N[C@@H](C)c2ccccc2)s1 [BAA-351, (S)-N-(3-hydroxy-2,6-dimethylphenyl)-2-((1-phenylethyl)amino) thiazole-5-carboxamide] | > 11 µM | W (10-<100 fold) | 1 to 11 µM |  |  | 
Cc1ccc(O)c(C)c1NC(=O)c1cnc(Nc2ccn([C@@H]3CCN(C(=O)COc4ccccc4)C3)n2)s1 [BAA-088] | > 11 µM | >X (100-<1000 fold) | 0.05 to 1 µM |  |  | 
CCc1c(O)ccc(C)c1NC(=O)c1cnc(Nc2ccn(CC(=O)N3CCCC3)n2)s1 [BAA-475, N-(2-ethyl-3-hydroxy-6-methylphenyl)-2-((1-(2-oxo-2-(pyrrolidin-1-yl)ethyl)-1H-pyrazol-3-yl)amino) thiazole-5-carboxamide] |  |  |  | > 11 µM | Y (1000-5000 fold) | < 0.05 µM
Cc1c(O)ccc(Br)c1NC(=O)c1cnc(Nc2ccn(CC(=O)N3CCCC3)n2)s1 [BAA-519, N-(6-Bromo-3-hydroxy-2-methyl-phenyl)-2-[[1-(2-oxo-2-pyrrolidin-1-yl-ethyl)pyrazol-3-yl]amino]thiazole-5-carboxamide] |  |  |  | > 11 µM | X (100-<1000 fold) | < 0.05 µM
Cc1ccc(O)c(C)c1NC(=O)c1cnc(Nc2ccn([C@@H]3CCN(C(=O)Cc4ccccc4F)C3)n2)s1 [BAA-095] | > 11 µM | >Y (1000-5000 fold) | 0.05 to 1 µM |  |  | 
